{
  "source": "patent US20240239752A1",
  "about": "“BICYCLIC HETEROAROMATIC INHIBITORS OF KLK5” (BioCryst Pharmaceuticals, Inc., priority 2021, published 2024)",
  "data": [
    {"molecular_target": "T1, recombinant human KLK5 (Homo sapiens, UniProt Q9Y337)", "T1 construct": "purchased Novoprotein or R&D Systems C415 or 1108-SE", "T1 sequence (Q9Y337 23-293)": "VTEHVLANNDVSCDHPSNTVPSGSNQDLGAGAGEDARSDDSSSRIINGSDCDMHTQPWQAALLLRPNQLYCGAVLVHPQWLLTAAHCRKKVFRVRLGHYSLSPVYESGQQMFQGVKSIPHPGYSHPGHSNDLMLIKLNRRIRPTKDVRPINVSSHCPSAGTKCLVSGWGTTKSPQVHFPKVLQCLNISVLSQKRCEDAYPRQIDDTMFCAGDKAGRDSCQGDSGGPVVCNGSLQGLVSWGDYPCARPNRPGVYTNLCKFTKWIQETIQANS", "test": "Kallikrein (KLK) 5 enzymatic assay (Boc-VPR-AMC fluorogenic substrate)", "format": "biochemical", "conditions": "recombinant human KLK5 0.1 μg/well, Boc-VPR-AMC 100 μM, pH 7.5, room temperature, 1% DMSO; tested a minimum of three times", "description": "Kallikrein-5 (KLK5) is a member of the serine protease family of proteolytic enzymes, confirmed to have trypsin-like activity (Michael I P, et al. Biochemical and enzymatic characterization of human kallikrein 5 (hK5), a novel serine protease potentially involved in cancer progression (J. Biol. Chem. 2005 Apr. 15; 280 (15): 14628-35). Boc-VPR-AMC is a fluorogenic peptide substrate composed of the short peptide chain, Valine-Proline-Arginine (VPR) and the fluorophore, 7-amino-4-methylcoumarin (AMC). KLK5 is able to cleave the fluorogenic peptide substrate Boc-VPR-AMC, releasing the AMC fluorophore, which causes a fluorescent emission in proportion with the enzymatic activity of KLK5. The KLK5 enzymatic activity is monitored by measuring fluorescent emission at wavelengths of 380 nm (excitation) and 460 nm (emission).\nThe IC50 value of compounds against KLK5 (i.e., the concentration of the compound that inhibits 50% of the enzymatic activity) was calculated according to the procedure reported by R&D systems (Recombinant human KLK5, Catalog Number: 1108-SE), with the exception the pH of the assay was modified from 8.0 to 7.5. Specifically, recombinant human KLK5 (Novoprotein Catalog #C415 or R&D systems Catalog #1108-SE) and fluorogenic peptide Boc-VPR-AMC substrate (R&D Catalog #ES011) were each separately diluted in assay buffer (0.1 M NaH2PO4 buffer, pH 7.5). The compounds of the disclosure were dissolved in DMSO at a concentration of 10 mM. A portion of this stock solution was added to the recombinant human KLK5 solution to provide a desired concentration of the compounds and the mixture was incubated at room temperature. The reaction was initiated by the addition of the fluorogenic peptide substrate at room temperature. The final concentration of recombinant human KLK5 was 0.1 μg/well and the final concentration of the fluorogenic substrate was 100 μM (final volume of 100 μL, 1% DMSO). The assays were performed in 96 well F16 Black Maxisorp Plate (Nunc Catalog #475515). Controls included assay buffer alone and enzyme solutions to which DMSO was added. The reaction rates were measured spectrophotometrically by excitation at 380 nm and emission at 460 nm on a Biotek Synergy H1 plate reader.\nThe reaction rate for enzyme alone was compared to the reaction rate of enzyme in the presence of compound and the percent inhibition was calculated as shown below:\nPercent Inhibition=[Rate with inhibitor/Rate without inhibitor)]×100\nAn IC50 indicates a compound concentration that inhibits 50% of the enzymatic activity. Compounds were tested a minimum of three times.", "units": {"IC50": "µM"}, "values": [
      {"smiles": "CC(C)n1nc(COc2ccccc2CC(=O)O)c2cc(-c3ccc4nccc(N)c4c3)ccc21", "note": "[Compound 25c, 2-(2-((5-(4-aminoquinolin-6-yl)-1-isopropyl-1H-indazol-3-yl)methoxy)phenyl)acetic acid]", "IC50": "1 to 10"},
      {"smiles": "CC(C)n1nc(COc2ccccc2CC(=O)O)c2cc(-c3ccc4[nH]c(N)nc4c3)ccc21", "note": "[Compound 26c, 2-(2-((5-(2-amino-1H-benzo[d]imidazol-5-yl)-1-isopropyl-1H-indazol-3-yl)methoxy)phenyl)acetic acid]", "IC50": "1 to 10"},
      {"smiles": "CC(C)n1nc(COc2ccccc2CC(=O)O)c2cc(-c3ccc4oc(N)nc4c3)ccc21", "note": "[Compound 27c, 2-(2-((5-(2-aminobenzo[d]oxazol-5-yl)-1-isopropyl-1H-indazol-3-yl)methoxy)phenyl)acetic acid]", "IC50": "> 10"},
      {"smiles": "N=C(N)c1cccc(-c2ccc3c(c2)c(COc2ccccc2CC(=O)O)nn3C2CCC2)c1", "note": "[Compound 28d, 2-(2-((5-(3-carbamimidoylphenyl)-1-cyclobutyl-1H-indazol-3-yl)methoxy)phenyl)acetic acid]", "IC50": "< 1"},
      {"smiles": "CC(C)n1nc(COc2ccccc2CC(=O)O)c2cc(-c3ccc(C(=N)N)c(O)c3)ccc21", "note": "[Compound 29c, 2-(2-((5-(4-carbamimidoyl-3-hydroxyphenyl)-1-isopropyl-1H-indazol-3-yl)methoxy)phenyl)acetic acid]", "IC50": "> 10"},
      {"smiles": "CC(C)n1nc(COc2ccccc2CC(=O)O)c2cc(-c3cccc4c(N)noc34)ccc21", "note": "[Compound 30c, 2-(2-((5-(3-aminobenzo[d]isoxazol-7-yl)-1-isopropyl-1H-indazol-3-yl)methoxy)phenyl)acetic acid]", "IC50": "> 10"},
      {"smiles": "CC(C)n1nc(COc2ccccc2CC(=O)O)c2cc(-c3cccc4c(N)n[nH]c34)ccc21", "note": "[Compound 31c, 2-(2-((3′-amino-1-isopropyl-1H, 1′H-[5,7′-biindazol]-3-yl)methoxy)phenyl)acetic acid]", "IC50": "1 to 10"},
      {"smiles": "CC(C)n1nc(COc2ccccc2CC(=O)O)c2cc(-c3ccc4[nH]nc(N)c4c3)ccc21", "note": "[Compound 32c, 2-(2-((3′-amino-1-isopropyl-1H, 1′H-[5,5′-biindazol]-3-yl)methoxy)phenyl)acetic acid]", "IC50": "> 10"},
      {"smiles": "CC(C)n1nc(COc2ccccc2CC(=O)O)c2cc(-c3ccn4ncc(N)c4n3)ccc21", "note": "[Compound 33c, 2-(2-((5-(3-aminopyrazolo[1,5-a]pyrimidin-5-yl)-1-isopropyl-1H-indazol-3-yl)methoxy)phenyl)acetic acid]", "IC50": "> 10"},
      {"smiles": "CC(C)n1nc(COc2ccccc2CC(=O)O)c2cc(-c3ccc4cc(N)ncc4c3)ccc21", "note": "[Compound 34c, 2-(2-((5-(3-aminoisoquinolin-7-yl)-1-isopropyl-1H-indazol-3-yl)methoxy)phenyl)acetic acid]", "IC50": "> 10"},
      {"smiles": "CC(C)n1nc(COc2ccccc2CC(=O)O)c2cc(-c3ccc4nc(N)ccc4c3)ccc21", "note": "[Compound 35c, 2-(2-((5-(2-aminoquinolin-6-yl)-1-isopropyl-1H-indazol-3-yl)methoxy)phenyl)acetic acid]", "IC50": "> 10"},
      {"smiles": "CC(C)n1nc(COc2ccccc2CC(=O)O)c2cc(-c3ccc4cc(N)ccc4c3)ccc21", "note": "[Compound 36c, 2-(2-((5-(6-aminonaphthalen-2-yl)-1-isopropyl-1H-indazol-3-yl)methoxy)phenyl)acetic acid]", "IC50": "> 10"},
      {"smiles": "Nc1nccc2ccc(-c3ccc4c(c3)c(COc3ccccc3CC(=O)O)nn4C3CCC3)cc12", "note": "[Compound 37c, 2-(2-((5-(1-aminoisoquinolin-7-yl)-1-cyclobutyl-1H-indazol-3-yl)methoxy)phenyl)acetic acid]", "IC50": "< 1"},
      {"smiles": "CC(C)n1nc(COc2ccccc2CC(=O)O)c2cc(-c3cc4cc(N)ccc4cn3)ccc21", "note": "[Compound 38c, 2-(2-((5-(6-aminoisoquinolin-3-yl)-1-isopropyl-1H-indazol-3-yl)methoxy)phenyl)acetic acid]", "IC50": "> 10"},
      {"smiles": "CC(C)n1nc(COc2ccccc2CC(=O)O)c2cc(-c3ccc4ncnc(N)c4c3)ccc21", "note": "[Compound 39c, 2-(2-((5-(4-aminoquinazolin-6-yl)-1-isopropyl-1H-indazol-3-yl)methoxy)phenyl)acetic acid]", "IC50": "> 10"},
      {"smiles": "CC(C)n1nc(COc2ccccc2CC(=O)O)c2cc(-c3cccc4c(N)nccc34)ccc21", "note": "[Compound 40b, 2-(2-((5-(1-aminoisoquinolin-5-yl)-1-isopropyl-1H-indazol-3-yl)methoxy)phenyl)acetic acid]", "IC50": "< 1"},
      {"smiles": "CC(C)n1nc(COc2ccccc2CC(=O)O)c2cc(-c3ccc4c(N)nc(N)nc4c3)ccc21", "note": "[Compound 41c, 2-(2-((5-(2,4-diaminoquinazolin-7-yl)-1-isopropyl-1H-indazol-3-yl)methoxy)phenyl)acetic acid]", "IC50": "> 10"},
      {"smiles": "Nc1nccc2ccc(-c3ccc4c(c3)c(COc3ccccc3CC(=O)O)nn4C3CCCC3)cc12", "note": "[Compound 42d, 2-(2-((5-(1-aminoisoquinolin-7-yl)-1-cyclopentyl-1H-indazol-3-yl)methoxy)phenyl)acetic acid]", "IC50": "< 1"},
      {"smiles": "CC(C)n1nc(COc2ccccc2CC(=O)O)c2cc(-c3ccc4c(N)cccc4c3)ccc21", "note": "[Compound 43d, 2-(2-((5-(5-aminonaphthalen-2-yl)-1-isopropyl-1H-indazol-3-yl)methoxy)phenyl)acetic acid]", "IC50": "> 10"},
      {"smiles": "CC(C)n1nc(COc2ccccc2CC(=O)O)c2cc(-c3ccc4ccnc(O)c4c3)ccc21", "note": "[Compound 44d, 2-(2-((5-(1-hydroxyisoquinolin-7-yl)-1-isopropyl-1H-indazol-3-yl)methoxy)phenyl)acetic acid]", "IC50": "> 10"},
      {"smiles": "CC(C)n1nc(COc2ccccc2CC(=O)O)c2cc(-c3cccc(-c4c[nH]nc4N)c3)ccc21", "note": "[Compound 45c, 2-(2-((5-(3-(3-amino-1H-pyrazol-4-yl)phenyl)-1-isopropyl-1H-indazol-3-yl)methoxy)phenyl)acetic acid]", "IC50": "> 10"},
      {"smiles": "CC(C)n1nc(COc2ccccc2CC(=O)O)c2cc(-c3ccc4cc(Cl)nc(N)c4c3)ccc21", "note": "[Compound 46d, 2-(2-((5-(1-amino-3-chloroisoquinolin-7-yl)-1-isopropyl-1H-indazol-3-yl)methoxy)phenyl)acetic acid]", "IC50": "> 10"},
      {"smiles": "CC(C)n1nc(COc2ccccc2CC(=O)O)c2cc(-c3cccc(-c4nn[nH]n4)c3)ccc21", "note": "[Compound 47c, 2-(2-((5-(3-(2H-tetrazol-5-yl)phenyl)-1-isopropyl-1H-indazol-3-yl)methoxy)phenyl)acetic acid]", "IC50": "> 10"},
      {"smiles": "Nc1nccc2ccc(-c3ccc4c(c3)c(COc3ccccc3CC(=O)O)nn4C3CCCCC3)cc12", "note": "[Compound 48d, 2-(2-((5-(1-aminoisoquinolin-7-yl)-1-cyclohexyl-1H-indazol-3-yl)methoxy)phenyl)acetic acid]", "IC50": "< 1"},
      {"smiles": "CC(C)n1nc(COc2ccccc2CC(=O)O)c2cc(-c3ccc4c(N)noc4c3)ccc21", "note": "[Compound 49a, 2-(2-((5-(3-aminobenzo[d]isoxazol-6-yl)-1-isopropyl-1H-indazol-3-yl)methoxy)phenyl)acetic acid]", "IC50": "> 10"},
      {"smiles": "CC(C)n1nc(COc2ccccc2CC(=O)O)c2cc(-c3ccc4ccc(N)nc4c3)ccc21", "note": "[Compound 50c, 2-(2-((5-(2-aminoquinolin-7-yl)-1-isopropyl-1H-indazol-3-yl)methoxy)phenyl)acetic acid]", "IC50": "> 10"},
      {"smiles": "CC(C)n1nc(COc2ccccc2CC(=O)O)c2cc(-c3cccc(-c4cnc[nH]4)c3)ccc21", "note": "[Compound 51c, 2-(2-((5-(3-(1H-imidazol-5-yl)phenyl)-1-isopropyl-1H-indazol-3-yl)methoxy)phenyl)acetic acid]", "IC50": "> 10"},
      {"smiles": "CC(C)n1nc(COc2ccccc2CC(=O)O)c2cc(-c3cccc(-c4nnc[nH]4)c3)ccc21", "note": "[Compound 52c, 2-(2-((5-(3-(4H-1,2,4-triazol-3-yl)phenyl)-1-isopropyl-1H-indazol-3-yl)methoxy)phenyl)acetic acid]", "IC50": "> 10"},
      {"smiles": "CC(C)n1nc(COc2ccccc2CC(=O)O)c2cc(-c3ccnc4c(N)cccc34)ccc21", "note": "[Compound 53c, 2-(2-((5-(8-aminoquinolin-4-yl)-1-isopropyl-1H-indazol-3-yl)methoxy)phenyl)acetic acid]", "IC50": "> 10"}
    ]}
  ]
}
